Residues, ends and D or L forms follow the SMILES beside them. *: point of attachment. Cbz = O=C(OCc1ccccc1)*
How the values were obtained:
BG01 cells = experiment: LY 294002 induced definitive endoderm (DE) formation, Sox17 Q-PCR; assay type: cell-based, human; settings: BG01 on matrigel in MEF-CM, 60 μM LY 294002, BIO approx. 0.1-5 μM, MeBIO approx. 1-5, 3-4 days, Sox17 mRNA by Q-PCR
Method: Q-PCT was performed using relative quantitation using SYBR Green chemistry on the Rotor Gene 3000 instrument (Corbett Research) and a two-step RT-PCR format. Primers were designed to lie over exon-exon boundaries or span introns of at least 800 bp when possible, as this has been empirically determined to eliminate amplification from contaminating genomic DNA.
Total RNA was isolated using RNeasy (Qiagen) and quantitated using RiboGreen (Molecular Probes). Reverse transcription from 350-500 ng of total RNA was carried out using the iScript reverse transcriptase kit (BioRad), which contains a mix of oligo-dT and random primers. Each 20 μL reaction was subsequently diluted up to 100 μL total volume and 3 μL was used in each 10 μL Q-PCR reaction containing 400 nM forward and reverse primers and 5 μL 2×SYBR Green master mix (Qiagen). Two step cycling parameters were used employing a 5 second denature at 85-94° C. (specifically selected according to the melting temp of the amplicon for each primer set) followed by a 45 second anneal/extend at 60° C. Fluorescence data was collected during the last 15 seconds of each extension phase. A three point, 10-fold dilution series was used to generate the standard curve for each run and cycle thresholds (Ct's) were converted to quantitative values based on this standard curve. The quantitated values for each sample were normalized to housekeeping gene performance and then average and standard deviations were calculated for triplicate samples. At the conclusion of PCR cycling, a melt curve analysis was performed to ascertain the specificity of the reaction. A single specific product was indicated by a single peak at the Tm appropriate for that PCR amplicon.
Both Cyclophilin G and GUS were used to calculate a normalization factor for all samples. The use of multiple HGs simultaneously reduces the variability inherent to the normalization process and increases the reliability of the relative gene expression values (Vandesompele et al., 2002, Genome Biol., 3:RESEARCH0034). […]

GSK3β^S9 phosphorylation = assay type: cell-based, murine; settings: 6 hours, CA 2 nM, OA 2 nM
Method: MESCs and d2 EBs were treated for the short-term (6 hours) with phosphatase inhibitors of varying specificities.

GSK3β [1] = target: T1, GSK3β (Mus musculus, UniProt Q9WV60); experiment: GSK3β kinase assay on immunoprecipitate, MBP substrate; assay type: biochemical; settings: day 6 EB lysates, inhibitor 3 μM in ethanol
T1 construct: endogenous in cells; host or cells: day 6 embryoid bodies derived from mouse ES cells (D3 / R1-EGFP)
T1 sequence (Q9WV60 whole entry): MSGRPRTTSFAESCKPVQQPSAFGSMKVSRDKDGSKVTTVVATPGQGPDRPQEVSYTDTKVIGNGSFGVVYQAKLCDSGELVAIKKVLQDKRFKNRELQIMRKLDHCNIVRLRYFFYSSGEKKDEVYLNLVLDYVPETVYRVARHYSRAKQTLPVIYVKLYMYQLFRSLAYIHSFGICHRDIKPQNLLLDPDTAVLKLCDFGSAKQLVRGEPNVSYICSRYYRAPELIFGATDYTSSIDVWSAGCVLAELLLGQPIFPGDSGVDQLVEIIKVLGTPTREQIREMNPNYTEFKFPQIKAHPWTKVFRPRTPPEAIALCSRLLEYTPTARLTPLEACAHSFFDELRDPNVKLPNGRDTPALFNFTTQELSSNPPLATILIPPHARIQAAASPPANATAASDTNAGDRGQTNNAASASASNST
Method: Cell lysate (300 μg total protein) was adjusted to 1 mg/ml with cell lysis buffer and tumbled with 3 μg of primary antibody for 3 hours at 4° C. 30 μL of protein A Sepharose beads were added and tumbled for a further 1 hour at 4° C. The beads were washed three times with 1 ml of cold lysis buffer and once with 1 ml of kinase buffer (50 mM Hepes pH 7.5, 10 mM MgCl2, 1 mM DTT, 2.5 mM EGTA and protease inhibitor cocktail II (Calbiochem)). Immune complexes bound to the PAS beads were resuspended in 30 μL of kinase buffer with or without the addition of GSK3β inhibitor II (3 μM in ethanol, Calbiochem) or ethanol and incubated at 30° C. for 20 minutes. 10 μCi of [γ-^32P] ATP and 5 μg of myelin basic protein (MBP, Upstate Biotech) was added and the reactions incubated at 30° C. for a further 20 minutes. Reactions were terminated by the addition of 2×SDS load buffer, heated at 95° C. for 2 minutes and resolved on a 12% SDS-polyacrylamide gel. Kinase activities were quantitated by phosphorimager analysis.
A common mechanism that triggers c-myc degradation is through its phosphorylation at threonine 58 (T58) by GSK3β (Hoang et al., (1995) Mol. Cell. Biol., 15:4031-4042; Sears et al., (2000) Genes Dev., 14:2501-2514; Gregory et al., (2003) J. Biol. Chem., 278:51606-51612). […]

c-myc = c-myc protein stability assay with proteosome inhibitor (immunoblot); assay type: cell-based, mouse; settings: EBs (−LIF), MG132 5 μM, 3 hours prior to harvesting
Method: Cells were lysed by incubating for one hour on ice in lysis buffer consisting of 50 mM Hepes pH 7.5, 1 mM EDTA, 1 mM EGTA, 250 mM NaCl, 10% glycerol, 0.1% Tween-20, 10 μg/ml TPCK, 50 μg/ml TLCK, 170 μg/ml PMSF, 0.5 mg/ml leupeptin, 0.7 mg/ml pepstatin and phosphatase inhibitor cocktail II (Calbiochem) with occasional vortexing/pipetting. Whole cell extracts (20-40 μg total protein) were separated by 10% SDS-PAGE, transferred to nitrocellulose membranes (BioRad), blocked with 3% BSA in TBSE (Tris HCl pH 7.5, 150 mM NaCl, 2 mM EDTA and 0.1% NP40) and probed with the indicated antibodies at 4° C. The following antibodies were used: anti-c-myc (N-262; Santa Cruz), anti-Oct4 (N-19; Santa Cruz), anti-tubulin (Serotech), anti-HDAC1 (Zymed), anti-Cdk2 (M2; Santa Cruz), anti-GSK3β (Transduction Laboratories). The anti-HDAC1 antibody detects both HDAC1 and HDAC2 and accordingly, a doublet is seen by immunoblot analysis. An antibody that recognizes the T58 phosphorylated form of c-myc (T58/S62, Cell Signaling Technology) was used to evaluate the status of c-myc^T58. […]
If so, it was predicted that c-myc would have enhanced stability. To test this possibility, the stability of c-myc was determined in undifferentiated ES cells relative to other cell types where its stability is in the order of 30 minutes or less (Hann & Eisenman, (1984) Mol. Cell. Biol., 4:2486-2497). […]

GSK3β [2] = experiment: GSK3β nuclear localization in EBs after OA treatment (staining); assay type: cell-based, murine; settings: OA added to EBs, short incubation; data not shown
Source text: A key issue relating to the understanding of self-renewal is determining how GSK3β activity is suppressed in ESCs but activated in cells committed to differentiate. […] The cytoplasmic localization of GSK3β in mESCs was corroborated by subcellular fractionation using hypotonic lysis (FIG. 3).
This mechanism accounts for the observed decline in phospho-S9 and activation of GSK3β that occurs during the early stages of differentiation. CA inhibits PP1 and PP2A in contrast to OA, which selectively targets PP2A. This implicated PP2A as a S9 phosphatase in this system. This is supported by experiments showing that PP2A complexes with GSK3 and c-myc in d2 EBs (FIG. 4C). […] While it is possible that nuclear GSK3β was degraded during OA treatment and nascent GSK3β retained in the cytoplasm, it is also likely that GSK3β is transported out of the nucleus in response to OA treatment since only short incubation periods were used and GSK3β is normally a stable protein. This would be consistent with a model where GSK3β localization is controlled by the phosphorylation status of S9. It is known that PP2A dephosphorylates S62 on c-myc, resulting in its degradation (Sears, (2004) Cell Cycle, 3(9):1133-7).

O=C1Nc2cc(Br)ccc2/C1=C1/Nc2ccccc2/C1=N\O [BIO, 6-bromoindirubin-3′-oxime]
LY 294002 induced DE formation as determined by Sox17 expression (BG01 cells): blocks LY 294002 induced DE formation

COC[C@@H]([C@H](O)[C@H](O)C(=O)NCC[C@H](C)c1nc(/C=C/C[C@@H]2O[C@]3(C[C@@H](O)[C@@H]2C)O[C@H]([C@H](C[C@H](O)[C@H](C)[C@H](O)[C@H](C)/C=C(C)/C(C)=C/C=C/C(C)=C\C#N)OC)[C@H](OP(=O)(O)O)C3(C)C)co1)N(C)C [Calyculin A]
GSK3β S9 phosphorylation in d2 EBs (GSK3β^S9 phosphorylation): significantly increased S9 phosphorylation

Ic1cccc(CSc2nnc(-c3ccncc3)o2)c1 [GSK3β inhibitor II]
immunoprecipitated GSK3β kinase activity (GSK3β [1]): sensitive

CC(C)C[C@@H](C=O)NC(=O)[C@H](CC(C)C)NC(=O)[C@H](CC(C)C)NC(=O)OCc1ccccc1 [MG132] (Cbz-Leu-Leu-Leu-aldehyde)
turnover of c-myc protein following LIF withdrawal (c-myc): blocked

CN1C(=O)/C(=C2\Nc3ccccc3\C2=N/O)c2ccc(Br)cc21 [MeBIO]
LY 294002 induced DE formation as determined by Sox17 expression (BG01 cells; listed as MeBio): but not MeBio, blocks LY 294002 induced DE formation
LY 294002 induced DE formation as determined by Sox17 expression (BG01 cells; listed as meBio): but not meBio, blocked LY 294002 induced DE formation

C=C1[C@@H](O)[C@@H]2O[C@]3(CC[C@H](/C=C/[C@@H](C)[C@@H]4CC(C)=C[C@@]5(O[C@H](C[C@@](C)(O)C(=O)O)CC[C@H]5O)O4)O3)CC[C@H]2O[C@@H]1[C@@H](O)C[C@H](C)[C@H]1O[C@@]2(CCCCO2)CC[C@H]1C [okadaic acid]
GSK3β staining in the nucleus (GSK3β [2]): GSK3β staining in the nucleus disappeared
GSK3β S9 phosphorylation in d2 EBs (GSK3β^S9 phosphorylation): significantly increased S9 phosphorylation

From patent publication US20080268533A1, “Methods and Compositions Utilizing Myc and Gsk3Beta to Manipulate the Pluripotency of Embryonic Stem Cells” (University of Georgia Research Foundation, Inc., priority 2004, published 2008)
